Experimental findings from patent publication US20220396586A1, “THIAZOLE CARBOXAMIDE COMPOUNDS AND USE THEREOF FOR THE TREATMENT OF MYCOBACTERIAL INFECTIONS” (THE GLOBAL ALLIANCE FOR TB DRUG DEVELOPMENT, INC., priority 2019, published 2022) are described below.

Converted amounts (≈) assume the structure as drawn.

For one assay, the system named is M. tb H37Rv. Description: MIC determination against M. tb H37Rv (MIC-MABA). The class given is cell-based, Mycobacterium tuberculosis. The note with it: 7H9 broth, 10 days exposure, MIC = lowest concentration inhibiting fluorescence by 90%; for MIC: Mycobacterium tuberculosis, H37RV, 240 h, read-out: M. tb H37Rv: MIC-MABA, M. tb H37Rv.
The next assay deals with M. ab_ATCC. Description: MIC against Mycobacterium abscessus (M. ab_ATCC, MHII), procedure of Franz 2017. The format is cell-based. The note with it: Mycobacterium abscessus ATCC; for MIC: Mycobacteroides abscessus. The source says: The procedure described in Franz 2017 was used to generate the data shown in column 2 of Table 1.

One may read the MIC as the lowest concentration found to suppress growth. For the compound `COc1nc2[nH]c(C(=O)NC3CC[Si]4(CCCCC4)CC3)cc2s1` [MPL-394, 2-methoxy-N-(6-silaspiro[5.5]undecan-3-yl)-4H-pyrrolo[2,3-d]thiazole-5-carboxamide], the MIC in the assay with M. tb H37Rv is 0.04 µg/mL (≈ 0.11 µM); against M. ab_ATCC, over 64 µg/mL.

Turning to `C[Si]1(C)CCCC(NC(=O)c2cc3sc(C4CC4)nc3[nH]2)CCC1` [MPL-304, 2-cyclopropyl-N-(1,1-dimethylsilocan-5-yl) -4H-pyrrolo[2,3-d]thiazole-5-carboxamide], the results for the MIC in the assay with M. tb H37Rv and in the assay with M. ab_ATCC were 0.291 µg/mL (≈ 0.805 µM) and over 64 µg/mL, respectively.

Consider `COc1ccccc1-c1nc2[nH]c(C(=O)NC3CC[Si](C)(C)CC3)cc2s1` [MPL-372, N-(1,1-dimethylsilinan-4-yl)-2-(2-methoxyphenyl)-4H-pyrrolo[2,3-d]thiazole-5-carboxamide], for which the values for the MIC in the assay on M. tb H37Rv and in the assay on M. ab_ATCC were 0.138 µg/mL (≈ 0.345 µM) and over 64 µg/mL, respectively.

For `COCCOc1nc2[nH]c(C(=O)NC3CC[Si]4(CCCCC4)CC3)cc2s1` [MPL-427, 2-(2-methoxyethoxy)-N-(6-silaspiro[5.5]undecan-3-yl)-4H-pyrrolo[2,3-d] thiazole-5-carboxamide], the MIC in the assay with M. tb H37Rv was 0.036 µg/mL (≈ 0.0883 µM); against M. ab_ATCC, over 64 µg/mL.

Regarding `C[Si]1(C)CCC(NC(=O)c2cc3sc(C4CC4)nc3[nH]2)C1` (stereo not drawn) [MPL-297, 2-cyclopropyl-N-(1,1-dimethylsilolan-3-yl)-4H-pyrrolo[2,3-d]thiazole-5-carboxamide], the MIC in the assay on M. tb H37Rv is 0.982 µg/mL (≈ 3.07 µM); in the assay with M. ab_ATCC, over 64 µg/mL.

`COc1nc2[nH]c(C(=O)NC3CC[Si](C)(C)CC3)cc2s1` [MPL-309, N-(1,1-dimethylsilinan-4-yl)-2-methoxy-4H-pyrrolo[2,3-d]thiazole-5-carboxamide]: the MIC came to 0.088 µg/mL (≈ 0.272 µM) with M. tb H37Rv and 0.625 µg/mL (≈ 1.93 µM) against M. ab_ATCC.

Turning to `COc1nc2[nH]c(C(=O)NC3CCC[Si](C)(C)CC3)cc2s1` (single isomer, unassigned) [MPL-395A, N-(1,1-dimethylsilepan-4-yl)-2-methoxy-4H-pyrrolo[2,3-d]thiazole-5-carboxamide], the “M. tb H37Rv: MIC-MABA” value with M. tb H37Rv was determined as 0.030 µg/mL. For the same compound, in the assay with M. ab_ATCC, the “M. ab_ATCC: MIC MHII: MIC” value worked out at 0.5 µg/mL.

Regarding `COc1nc2[nH]c(C(=O)NC3CC[Si](C)(C)C3)cc2s1` (stereo not drawn) [MPL-403, N-(1,1-dimethylsilolan-3-yl)-2-methoxy-4H-pyrrolo[2,3-d]thiazole-5-carboxamide], the MIC turned out to be 0.809 µg/mL (≈ 2.61 µM) in the assay on M. tb H37Rv and 4 µg/mL (≈ 12.9 µM) in the assay with M. ab_ATCC.

Take `O=C(NC1CC[Si]2(CCCC2)CC1)c1cc2sc(OC3CCC3)nc2[nH]1` [MPL-459, 2-(cyclobutoxy)-N-(5-silaspiro[4.5]decan-8-yl)-4H-pyrrolo[2,3-d]thiazole-5-carboxamide]: the MIC in the assay on M. tb H37Rv was 0.0593 µg/mL (≈ 0.152 µM); against M. ab_ATCC, over 64 µg/mL.

As to `COc1nc2[nH]c(C(=O)NC3CCC(C)(C)CC3)cc2s1` [MPL-456, N-(4,4-dimethylcyclohexyl)-2-methoxy-4H-pyrrolo[2,3-d]thiazole-5-carboxamide], the MIC in the assay on M. tb H37Rv was found to be 0.317 µg/mL (≈ 1.03 µM); in the assay with M. ab_ATCC, 1 µg/mL (≈ 3.25 µM).

`C[Si]1(C)CCC(NC(=O)c2cc3sc(C4CCCC4)nc3[nH]2)CC1` [MPL-474, 2-cyclopentyl-N-(1,1-dimethylsilinan-4-yl)-4H-pyrrolo[2,3-d] thiazole-5-carboxamide]: the MIC is 0.061 µg/mL (≈ 0.169 µM) in the assay on M. tb H37Rv and over 64 µg/mL in the assay on M. ab_ATCC.

Consider `O=C(NC1CC[Si]2(CCCC2)CC1)c1cc2sc(OC3CC3)nc2[nH]1` [MPL-458, 2-(cyclopropoxy)-N-(5-silaspiro[4.5]decan-8-yl)-4H-pyrrolo[2,3-d]thiazole-5-carboxamide], for which the MIC in the assay with M. tb H37Rv is 0.124 µg/mL (≈ 0.33 µM); in the assay on M. ab_ATCC, over 64 µg/mL.

Take `Cc1nc2[nH]c(C(=O)N[C@H]3C[C@H]4C[C@H](C4(C)C)[C@@]3(C)O)cc2s1` [MPL-224, N-[(1R,2R,3S,5R)-2-hydroxy-2,6,6-trimethyl-norpinan-3-yl]-2-methyl-4H-pyrrolo[2,3-d]thiazole-5-carboxamide]: the MIC is 0.39 µg/mL (≈ 1.17 µM) in the assay on M. tb H37Rv and over 64 µg/mL against M. ab_ATCC.

Take `COc1nc2[nH]c(C(=O)NC3CCC[Si](C)(C)CC3)cc2s1` (single isomer, unassigned) [MPL-395B, N-(1,1-dimethylsilepan-4-yl)-2-methoxy-4H-pyrrolo[2,3-d]thiazole-5-carboxamide]: the “M. tb H37Rv: MIC-MABA” value in the assay on M. tb H37Rv came to 0.999 µg/mL. In addition, the “M. ab_ATCC: MIC MHII: MIC” value with M. ab_ATCC was over 64 µg/mL.

On to `C[Si]1(C)CCCC(NC(=O)c2cc3sc(OC4CCC4)nc3[nH]2)CC1` (stereo not drawn) [MPL-475, 2-(cyclobutoxy)-N-(1,1-dimethylsilepan-4-yl)-4H-pyrrolo[2,3-d]thiazole-5-carboxamide], for which the MIC in the assay with M. tb H37Rv was found to be 0.046 µg/mL (≈ 0.122 µM); in the assay with M. ab_ATCC it was 16 µg/mL (≈ 42.4 µM).

As for `C[Si]1(C)CCCC(NC(=O)c2cc3sc(-c4ccccn4)nc3[nH]2)CC1` (stereo not drawn) [MPL-364, N-(1,1-dimethylsilepan-4-yl)-2-(2-pyridyl)-4H-pyrrolo[2,3-d]thiazole-5-carboxamide], the MIC with M. tb H37Rv was 0.423 µg/mL (≈ 1.1 µM); against M. ab_ATCC, over 64 µg/mL.

Take `Cc1c(C(=O)NC2CC[Si](C)(C)CC2)[nH]c2sc(C(C)C)nc12` [MPL-312, N-(1,1-dimethylsilinan-4-yl)-2-isopropyl-6-methyl-4H-pyrrolo[3,2-d]thiazole-5-carboxamide]: the MIC in the assay on M. tb H37Rv is 0.498 µg/mL (≈ 1.42 µM); in the assay on M. ab_ATCC, over 64 µg/mL.

In the case of `Cc1ccccc1-c1nc2[nH]c(C(=O)NC3CC[Si](C)(C)CC3)cc2s1` [MPL-371, N-(1,1-dimethylsilinan-4-yl)-2-(o-tolyl)-4H-pyrrolo[2,3-d]thiazole-5-carboxamide], the MIC in the assay with M. tb H37Rv was 0.041 µg/mL (≈ 0.107 µM); against M. ab_ATCC it was over 64 µg/mL.

As to `Cc1nc2cc(C(=O)NC3CCCCCCC3)[nH]c2s1` [MPL-091, N-cyclooctyl-2-methyl-4H-pyrrolo[3,2-d]thiazole-5-carboxamide], the values for the MIC in the assay on M. tb H37Rv and in the assay on M. ab_ATCC were over 3.2 µg/mL and over 64 µg/mL, respectively.

For `Cc1c(C(=O)NC2CC[Si](C)(C)CC2)[nH]c2nc(C3CC3)sc12` [MPL-228, 2-cyclopropyl-N-(1,1-dimethylsilinan-4-yl)-6-methyl-4H-pyrrolo[2,3-d]thiazole-5-carboxamide], the MIC is 0.061 µg/mL (≈ 0.176 µM) in the assay with M. tb H37Rv and over 64 µg/mL against M. ab_ATCC.

As for `COCc1nc2[nH]c(C(=O)NC3CC[Si]4(CCCCC4)CC3)cc2s1` [MPL-429, 2-(methoxymethyl)-N-(6-silaspiro[5.5]undecan-3-yl)-4H-pyrrolo[2,3-d]thiazole-5-carboxamide], the results for the MIC in the assay on M. tb H37Rv and in the assay on M. ab_ATCC were 0.058 µg/mL (≈ 0.154 µM) and 64 µg/mL (≈ 169 µM), respectively.

Take `O=C(NC1CC[Si]2(CCCC2)CC1)c1cc2sc(-c3ccccc3)nc2[nH]1` [MPL-358, 2-phenyl-N-(5-silaspiro[4.5]decan-8-yl)-4H-pyrrolo[2,3-d]thiazole-5-carboxamide]: the values for the MIC with M. tb H37Rv and against M. ab_ATCC were 0.033 µg/mL (≈ 0.0834 µM) and over 64 µg/mL, respectively.

In the case of `Cc1nc2[nH]c(C(=O)N[C@H]3C[C@H]4C[C@@H]([C@@H]3C)C4(C)C)cc2s1` [MPL-025, 2-methyl-N-[(1S,2S,3S,5R)-2,6,6-trimethylnorpinan-3-yl]-4H-pyrrolo[2,3-d]thiazole-5-carboxamide], the MIC in the assay on M. tb H37Rv was found to be 0.71 µg/mL (≈ 2.24 µM); with M. ab_ATCC, 4 µg/mL (≈ 12.6 µM).

With `Cc1nc2cc(C(=O)NC3CC[Si](C)(C)CC3)[nH]c2s1` [MPL-206, N-(1,1-dimethylsilinan-4-yl)-2-methyl-4H-pyrrolo[3,2-d]thiazole-5-carboxamide], the MIC with M. tb H37Rv is over 1.6 µg/mL; in the assay with M. ab_ATCC, over 64 µg/mL.

`Cc1c(C(=O)NC2CCCCCCC2)[nH]c2nc(C3CC3)sc12` [MPL-291, N-cyclooctyl-2-cyclopropyl-6-methyl-4H-pyrrolo[2,3-d]thiazole-5-carboxamide]: the figures for the MIC in the assay with M. tb H37Rv and in the assay with M. ab_ATCC were 0.372 µg/mL (≈ 1.12 µM) and over 64 µg/mL, respectively.

With `C[Si]1(C)CCC(NC(=O)c2[nH]c3sc(C4CC4)nc3c2Br)CC1` [MPL-311, 6-bromo-2-cyclopropyl-N-(1,1-dimethylsilinan-4-yl)-4H-pyrrolo[3,2-d]thiazole-5-carboxamide], the MIC with M. tb H37Rv was 0.457 µg/mL (≈ 1.11 µM); against M. ab_ATCC it was over 64 µg/mL.

Consider `C[C@@H]1[C@@H](NC(=O)c2cc3sc(C4CC4)nc3[nH]2)C[C@H]2C[C@@H]1C2(C)C` [MPL-144, 2-cyclopropyl-N-((1S,2S,3S,5R)-2,6,6-trimethylbicyclo[3.1.1]heptan-3-yl)-4H-pyrrolo[2,3-d]thiazole-5-carboxamide], for which the MIC with M. tb H37Rv was 1.5 µg/mL (≈ 4.37 µM); with M. ab_ATCC, over 64 µg/mL.

Regarding `CC1(C)CCC(NC(=O)c2cc3scnc3[nH]2)CC1` [MPL-021, N-(4,4-dimethylcyclohexyl)-4H-pyrrolo[2,3-d]thiazole-5-carboxamide], the MIC in the assay with M. tb H37Rv was 1.3 µg/mL (≈ 4.69 µM); against M. ab_ATCC it was over 64 µg/mL.

On to `COc1nc2[nH]c(C(=O)NC3CCC[Si](C)(C)CC3)cc2s1` (racemic) [MPL-395, N-(1,1-dimethylsilepan-4-yl)-2-methoxy-4H-pyrrolo[2,3-d]thiazole-5-carboxamide], for which the values for the MIC with M. tb H37Rv and against M. ab_ATCC were 0.047 µg/mL (≈ 0.139 µM) and 1 µg/mL (≈ 2.96 µM), respectively.

For the compound `C[Si]1(C)CCCC(NC(=O)c2cc3sc(-c4ccccc4)nc3[nH]2)CC1` (racemic) [MPL-357, N-(1,1-dimethylsilepan-4-yl)-2-phenyl-4H-pyrrolo[2,3-d]thiazole-5-carboxamide], the MIC in the assay on M. tb H37Rv was 0.012 µg/mL (≈ 0.0313 µM); in the assay on M. ab_ATCC it was over 64 µg/mL.

As for `Cc1c(C(=O)NC2CCCC[Si](C)(C)CC2)[nH]c2nc(C3CC3)sc12` (stereo not drawn) [MPL-293, 2-cyclopropyl-N-(1,1-dimethylsilocan-4-yl)-6-methyl-4H-pyrrolo [2,3-d]thiazole-5-carboxamide], the values for the MIC in the assay with M. tb H37Rv and against M. ab_ATCC were 0.062 µg/mL (≈ 0.165 µM) and over 64 µg/mL, respectively.

In the case of `O=C(NC1CC[Si]2(CCCCC2)CC1)c1cc2sc(-c3ccccc3)nc2[nH]1` [MPL-359, 2-phenyl-N-(6-silaspiro[5.5]undecan-3-yl)-4H-pyrrolo[2,3-d]thiazole-5-carboxamide], the results for the MIC in the assay on M. tb H37Rv and in the assay on M. ab_ATCC were 0.014 µg/mL (≈ 0.0342 µM) and over 64 µg/mL, respectively.

As to `C[Si]1(C)CCC(NC(=O)c2cc3sc(C4CC4)nc3[nH]2)CC1` [MPL-240, 2-cyclopropyl-N-(1,1-dimethylsilinan-4-yl)-4H-pyrrolo[2,3-d]thiazole-5-carboxamide], the values for the MIC with M. tb H37Rv and in the assay on M. ab_ATCC were 0.46 µg/mL (≈ 1.38 µM) and 0.5 µg/mL (≈ 1.5 µM), respectively.
